From patent US11008325B2, “Inhibitors of cancer invasion, attachment, and/or metastasis” (VIRGINIA COMMONWEALTH UNIVERSITY, priority 2016, dated 2021)
“Also recorded” adds a separate entry of the source.

Columns and labels:
U1242-Luc cells = test: intracranial U1242-Luc tumors, PDZ1i with or without radiation; assay type: in vivo, nude mice
Protocol: FIGS. 14A-14F. PDZ1i treatment combined with radiation in an in vivo model of GBM. FIG. 14A. U1242-luc cells were injected intracranially into nude mice. After 7 days mice were randomized to 4 groups, and mice receiving therapy were treated on days 11-14 as pictured. FIG. 14B. Kaplan-Meier survival curves for each treatment group. Median survival as listed. Two brain tissue samples were isolated for each group, sectioned, and H and E staining is shown. FIG. 14C, DMSO treated mice, FIG. 14D, PDZ1i treated mice, FIG. 14E, mice treated with radiation and DMSO; FIG. 14F, mice treated with radiation and PDZ1i.
PDZ1i combined with radiation extends survival and reduces GBM invasion in vivo. We next investigated the combination of PDZ1i with radiotherapy in vivo. U1242-Luc cells were injected intracranially under anesthesia and formed tumors, confirmed by imaging at 7 d post-injection. At this point, mice were randomized to 4 groups: DMSO treatment, PDZ1i treatment (30 mg/kg), DMSO+IR, and PDZ1i+IR. Treatment began on 11 d post-injection and mice receiving radiation were treated with 2.5 Gy for 4 consecutive d. PDZ1i was administered 2 h prior to radiation treatment on each of the 4 treatment d (FIG. 14A). […] To investigate this, brain tissue sections were collected and H & E stains were analyzed. […]

prostate adenocarcinoma = test: Hi-myc spontaneous prostate cancer transgenic model; assay type: in vivo, Hi-myc mice; conditions: 30 mg/kg I.P., 9 times for the first three weeks
Protocol: FIG. 19A-19F. PDZ1i suppresses prostate cancer metastasis and tumor progression. FIG. 19A) Survival data for athymic nude mice in which DMSO or PDZ1i pre-treated ARCaPM cells were injected. FIG. 19B) Survival data for athymic nude mice which were injected with (n=5, each group) ARCaPM-Luc (1×10^6 cells in 100 μl saline) through an intracardiac route. Mice received either vehicle or PDZ1i every alternative day (9 injections during the first […]) and maintained until they needed to be euthanized. FIG. 19C) Survival data for C57BL/6 mice injected through the intracardiac route with RM1-Luc. Vehicle or PDZ1i was administered through intraperitoneal injection every alternate day (total 3 injections during the first week). Survival curves were generated using 6 control vehicle-treated and 5 PDZ1i-treated. Kaplan—Meier survival curves were prepared using Graph Pad software. […] Graphical representation of the average prostate weights from control and treated groups. FIG. 19E and FIG. 19F) Photomicrographs representing the histological changes in prostate sections obtained from 6-month old Hi-Myc mice receiving either vehicle (FIG. 19E) or PDZ1i (FIG. 19F). To evaluate potential therapeutic efficacy of PDZ1i four sets of in vivo experiments were conducted. […]

[1] = toxicity in vivo in pre-clinical animal models; conditions: listed as PDZ1i

Cc1cc(NC(=O)c2nc3[nH]c4c(c(=O)n3n2)CCC4)c(C)cc1NC(=O)CCc1nnc(-c2ccccc2)o1 [113B7, N-(2,5-dimethyl-4-(3-(5-phenyl-1,3,4-oxadiazol-2-yl)propanamido)phenyl)-8-oxo-5,6,7,8-tetrahydro-4H-cyclopenta[d][1,2,4]triazolo[1,5-a]pyrimidine-2-carboxamide]
average survival (U1242-Luc cells; PDZ1i 30 mg/kg 2 h prior to IR, 2.5 Gy for 4 consecutive d): 78.8 days
average survival (U1242-Luc cells; PDZ1i 30 mg/kg alone): 54.7 days
size and weight of prostates (prostate adenocarcinoma): significantly less
toxicity / tolerability in vivo [1]: well-tolerated; also recorded: no apparent toxicity
